# Assay results reported in patent US7094900B2, “N-Aryl-2-oxazolidinones and their derivatives” (Pharmacia & Upjohn Company LLC, priority 2002, dated 2006).
# System: Saur 9213
# Test: MIC test, standard agar dilution method
# Assay type: cell-based
# Conditions: Mueller Hinton agar, incubated overnight at 35° C., lowest concentration that inhibits visible growth
# From the text: The oxazolidinone antibacterial agents of this invention have useful activity against a variety of organisms. The in vitro activity of compounds of this invention can be assessed by standard testing procedures such as the determination of minimum inhibitory concentration (MIC) by agar dilution as described in “Approved Standard. Methods for Dilution Antimicrobial Susceptibility Tests for Bacteria That Grow Aerobically”, 3rd. ed., published 1993 by the National Committee for Clinical Laboratory Standards, Villanova, Pa., USA. MIC Test Method The in vitro MICs of test compounds were determined by a standard agar dilution method. A stock drug solution of each analog was prepared in the preferred solvent, usually DMSO:H2O (1:3). Serial 2-fold dilutions of each sample are made using 1.0 ml aliquots of sterile distilled water. To each 1.0 ml aliquot of drug was added 9 ml of molten Mueller Hinton gar medium. The drug-supplemented agar was mixed, poured into 15×100 mm petri dishes, and allowed to solidify and dry prior to inoculation. Vial of each of the test organisms are maintained frozen in the vapor phase of a liquid nitrogen freezer. Test cultures are grown overnight at 35° C. on the medium appropriate for the organism. Colonies are harvested with a sterile swab, and cell suspensions are prepared in Trypticase Soy broth (TSB) to equal the turbidity of a 0.5 McFarland standard. A 1:20 dilution of each suspension was made in TSB. The plates containing the drug supplemented agar are inoculated with a 0.001 ml drop of the cell suspension using a Steers replicator, yielding approximately 10^4 to 10^5 cells per spot. The plates are incubated overnight at 35° C. Following incubation the Minimum Inhibitory Concentration (MIC μg/ml), the lowest concentration of the drug that inhibits visible growth of the organism, was read and recorded.
row,MIC,Structure (SMILES)
1,4 µg/mL,"CC(=O)NC[C@H]1CN(c2ccc(C3CCC(=O)NC3)c(F)c2)C(=O)O1 (stereo partly drawn) [Example 1, N-({(5S)-3-[3-fluoro-4-(6-oxopiperidin-3-yl)phenyl]-2-oxo-1,3-oxazolidin-5-yl}methyl)acetamide]"
2,4 µg/mL,"CCC(=O)NC[C@H]1CN(c2ccc(C3CCC(=O)NC3)c(F)c2)C(=O)O1 (stereo partly drawn) [Example 2, N-({(5S)-3-[3-fluoro-4-(6-oxopiperidin-3-yl)phenyl]-2-oxo-1,3-oxazolidin-5-yl}methyl)propanamide]"
3,4 µg/mL,"O=C1CCC(c2ccc(N3C[C@H](CNC(=O)C(Cl)Cl)OC3=O)cc2F)CN1 (stereo partly drawn) [Example 3, 2,2-dichloro-N-({(5S)-3-[3-fluoro-4-(6-oxopiperidin-3-yl)phenyl]-2-oxo-1,3-oxazolidin-5-yl}methyl)acetamide]"
4,1 µg/mL,"O=C1CCC(c2ccc(N3C[C@H](CNC(=S)C(F)F)OC3=O)cc2F)CN1 (stereo partly drawn) [Example 4, 2,2-difluoro-N-({(5S)-3-[3-fluoro-4-(6-oxopiperidin-3-yl)phenyl]-2-oxo-1,3-oxazolidin-5-yl}methyl)ethanethioamide]"
5,4 µg/mL,"O=C1CCC(c2ccc(N3C[C@H](CNC(=O)C(F)F)OC3=O)cc2F)CN1 (stereo partly drawn) [Example 5, 2,2-difluoro-N-({(5S)-3-[3-fluoro-4-(6-oxopiperidin-3-yl)phenyl]-2-oxo-1,3-oxazolidin-5-yl}methyl)acetamide]"
6,4 µg/mL,"CC(=O)NC[C@H]1CN(c2cc(F)c(C3CCC(=O)NC3)c(F)c2)C(=O)O1 (stereo partly drawn) [Example 6, N-({(5S)-3-[3,5-difluoro-4-(6-oxopiperidin-3-yl)phenyl]-2-oxo-1,3-oxazolidin-5-yl}methyl)acetamide]"
7,2 µg/mL,"O=C1CCC(c2c(F)cc(N3C[C@H](CNC(=O)C(Cl)Cl)OC3=O)cc2F)CN1 (stereo partly drawn) [Example 7, 2,2-dichloro-N-({(5S)-3-[3,5-difluoro-4-(6-oxopiperidin-3-yl)phenyl]-2-oxo-1,3-oxazolidin-5-yl}methyl)acetamide]"
8,1 µg/mL,"O=C1CCC(c2c(F)cc(N3C[C@H](CNC(=S)C(F)F)OC3=O)cc2F)CN1 (stereo partly drawn) [Example 8, N-({(5S)-3-[3,5-difluoro-4-(6-oxopiperidin-3-yl)phenyl]-2-oxo-1,3-oxazolidin-5-yl}methyl)-2,2-difluoroethanethioamide]"
9,4 µg/mL,"O=C1CCC(c2c(F)cc(N3C[C@H](CNC(=O)C(F)F)OC3=O)cc2F)CN1 (stereo partly drawn) [Example 9, N-({(5S)-3-[3,5-difluoro-4-(6-oxopiperidin-3-yl)phenyl]-2-oxo-1,3-oxazolidin-5-yl}methyl)-2,2-difluoroacetamide]"
10,8 µg/mL,"CC(=O)NC[C@H]1CN(c2ccc(C3CCC(=O)NC3)cc2)C(=O)O1 (stereo partly drawn) [Example 10, N-({(5S)-2-oxo-3-[4-(6-oxopiperidin-3-yl)phenyl]-1,3-oxazolidin-5-yl}methyl)acetamide]"
11,8 µg/mL,"CCC(=O)NC[C@H]1CN(c2ccc(C3CCC(=O)NC3)cc2)C(=O)O1 (stereo partly drawn) [Example 11, N-({(5S)-2-oxo-3-[4-(6-oxopiperidin-3-yl)phenyl]-1,3-oxazolidin-5-yl}methyl)propanamide]"
12,4 µg/mL,"O=C1CCC(c2ccc(N3C[C@H](CNC(=O)C(Cl)Cl)OC3=O)cc2)CN1 (stereo partly drawn) [Example 12, 2,2-dichloro-N-({(5S)-2-oxo-3-[4-(6-oxopiperidin-3-yl)phenyl]-1,3-oxazolidin-5-yl}methyl)acetamide]"
13,2 µg/mL,"O=C1CCC(c2ccc(N3C[C@H](CNC(=S)C(F)F)OC3=O)cc2)CN1 (stereo partly drawn) [Example 13, 2,2-difluoro-N-({(5S)-2-oxo-3-[4-(6-oxopiperidin-3-yl)phenyl]-1,3-oxazolidin-5-yl}methyl)ethanethioamide]"
14,8 µg/mL,"CC(=O)NC[C@H]1CN(c2ccc(C3CCC(=O)N(C)C3)cc2)C(=O)O1 (stereo partly drawn) [Example 15, ({(5S)-3-[4-(1-methyl-6-oxopiperidin-3-yl)phenyl]-2-oxo-1,3-oxazolidin-5-yl}methyl)acetamide]"
15,2 µg/mL,"CC(=O)NC[C@H]1CN(c2ccc(C3CCNC(=O)C3)c(F)c2)C(=O)O1 (stereo partly drawn) [Example 16, N-({(5S)-3-[3-fluoro-4-(2-oxopiperidin-4-yl)phenyl]-2-oxo-1,3-oxazolidin-5-yl}methyl)acetamide]"
16,4 µg/mL,"CCC(=O)NC[C@H]1CN(c2ccc(C3CCNC(=O)C3)c(F)c2)C(=O)O1 (stereo partly drawn) [Example 17, N-({(5S)-3-[3-fluoro-4-(2-oxopiperidin-4-yl)phenyl]-2-oxo-1,3-oxazolidin-5-yl}methyl)propanamide]"
17,1 µg/mL,"O=C1CC(c2ccc(N3C[C@H](CNC(=S)C(F)F)OC3=O)cc2F)CCN1 (stereo partly drawn) [Example 18, 2,2-difluoro-N-({(5S)-3-[3-fluoro-4-(2-oxopiperidin-4-yl)phenyl]-2-oxo-1,3-oxazolidin-5-yl}methyl)ethanethioamide]"
18,4 µg/mL,"CC(=O)NC[C@H]1CN(c2cc(F)c(C3CCNC(=O)C3)c(F)c2)C(=O)O1 (stereo partly drawn) [Example 19, N-({(5S)-3-[3,5-difluoro-4-(2-oxopiperidin-4-yl)phenyl]-2-oxo-1,3-oxazolidin-5-yl}methyl)acetamide]"
19,8 µg/mL,"CCC(=O)NC[C@H]1CN(c2cc(F)c(C3CCNC(=O)C3)c(F)c2)C(=O)O1 (stereo partly drawn) [Example 20, N-({(5S)-3-[3,5-difluoro-4-(2-oxopiperidin-4-yl)phenyl]-2-oxo-1,3-oxazolidin-5-yl}methyl)propanamide]"
20,2 µg/mL,"O=C1CC(c2c(F)cc(N3C[C@H](CNC(=S)C(F)F)OC3=O)cc2F)CCN1 (stereo partly drawn) [Example 21, N-({(5S)-3-[3,5-difluoro-4-(2-oxopiperidin-4-yl)phenyl]-2-oxo-1,3-oxazolidin-5-yl}methyl)-2,2-difluoroethanethioamide]"
21,4 µg/mL,"CC(=O)NC[C@H]1CN(c2ccc(C3CCNC(=O)C3)cc2)C(=O)O1 (stereo partly drawn) [Example 22, N-({(5S)-2-oxo-3-[4-(2-oxopiperidin-4-yl)phenyl]-1,3-oxazolidin-5-yl}methyl)acetamide]"
22,1 µg/mL,"O=C1CC(c2ccc(N3C[C@H](CNC(=S)C(F)F)OC3=O)cc2)CCN1 (stereo partly drawn) [Example 23, 2,2-difluoro-N-({(5S)-2-oxo-3-[4-(2-oxopiperidin-4-yl)phenyl]-1,3-oxazolidin-5-yl}methyl)ethanethioamide]"
23,8 µg/mL,"CCC(=O)NC[C@H]1CN(c2ccc(C3CCNC(=O)C3)cc2)C(=O)O1 (stereo partly drawn) [Example 24, N-({(5S)-2-oxo-3-[4-(2-oxopiperidin-4-yl)phenyl]-1,3-oxazolidin-5-yl}methyl)propanamide]"
24,4 µg/mL,"CC(=O)NC[C@H]1CN(c2ccc(C3CCN(C)C(=O)C3)cc2)C(=O)O1 (stereo partly drawn) [Example 25, N-({(5S)-3-[4-(1-methyl-2-oxopiperidin-4-yl)phenyl]-2-oxo-1,3-oxazolidin-5-yl}methyl)acetamide]"
25,2 µg/mL,"O=C1CCC(c2c(F)cc(N3C[C@H](Cn4ccnn4)OC3=O)cc2F)CN1 (stereo partly drawn) [Example 26, 5-{2,6-difluoro-4-[(5R)-2-oxo-5-(1H-1,2,3-triazol-1-ylmethyl)-1,3-oxazolidin-3-yl]phenyl}piperidin-2-one]"
